Experimental findings from patent US8552023B2, “Non-amidic linkers with branched termini as CGRP receptor antagonists” (Merck Sharp & Dohme Corp., priority 2008, dated 2013) are described below.

Chain of recombinant human CL receptor/RAMP1 (Q16602 23-461): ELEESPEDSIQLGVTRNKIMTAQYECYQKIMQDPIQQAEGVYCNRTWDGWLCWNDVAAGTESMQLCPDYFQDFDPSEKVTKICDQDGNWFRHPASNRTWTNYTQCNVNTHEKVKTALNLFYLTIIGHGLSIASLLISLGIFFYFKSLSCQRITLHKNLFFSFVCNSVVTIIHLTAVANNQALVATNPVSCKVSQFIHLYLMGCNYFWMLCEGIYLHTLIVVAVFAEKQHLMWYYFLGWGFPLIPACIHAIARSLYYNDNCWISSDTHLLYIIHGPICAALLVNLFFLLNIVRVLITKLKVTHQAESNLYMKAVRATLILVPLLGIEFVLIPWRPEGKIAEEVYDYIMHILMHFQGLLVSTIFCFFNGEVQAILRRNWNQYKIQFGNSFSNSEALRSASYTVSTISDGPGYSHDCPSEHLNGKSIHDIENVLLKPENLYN
Chain of recombinant human CL receptor/RAMP1 (O60894 27-148): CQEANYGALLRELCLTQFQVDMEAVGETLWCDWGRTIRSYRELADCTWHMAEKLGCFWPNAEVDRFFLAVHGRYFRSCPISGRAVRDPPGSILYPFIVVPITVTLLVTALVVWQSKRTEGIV

In the first assay the target is recombinant human CL receptor/RAMP1 (Homo sapiens (Human), UniProt O60894+Q16602). In words: Human CGRP receptor binding (recombinant receptor binding assay, 125I-hCGRP). To be noted: read-out: Human CGRP receptor binding Ki. As for the experimental part:
RECOMBINANT RECEPTOR: Human CL receptor (Genbank accession number L76380) was subcloned into the expression vector pIREShyg2 (BD Biosciences Clontech) as a 5′NheI and 3′ PmeI fragment. Human RAMP1 (Genbank accession number AJ001014) was subcloned into the expression vector pIRESpuro2 (BD Biosciences Clontech) as a 5′NheI and 3′NotI fragment. HEK 293 cells (human embryonic kidney cells; ATCC #CRL-1573) were cultured in DMEM with 4.5 g/L glucose, 1 mM sodium pyruvate and 2 mM glutamine supplemented with 10% fetal bovine serum (FBS), 100 units/mL penicillin and 100 μg/mL streptomycin, and maintained at 37° C. and 95% humidity. Cells were subcultured by treatment with 0.25% trypsin with 0.1% EDTA in HBSS. Stable cell line generation was accomplished by co-transfecting 10 μg of DNA with 30 μg Lipofectamine 2000 (Invitrogen) in 75 cm^2 flasks. CL receptor and RAMP1 expression constructs were co-transfected in equal amounts. Twenty-four hours after transfection the cells were diluted and selective medium (growth medium+300 μg/mL hygromycin and 1 μg/mL puromycin) was added the following day. A clonal cell line was generated by single cell deposition utilizing a FACS Vantage SE (Becton Dickinson). Growth medium was adjusted to 150 μg/mL hygromycin and 0.5 μg/mL puromycin for cell propagation.
The cell suspension was disrupted with a laboratory homogenizer and centrifuged at 48,000 g to isolate membranes. The pellets were resuspended in harvest buffer plus 250 mM sucrose and stored at −70° C. For binding assays, 20 μg of membranes were incubated in 1 ml binding buffer (10 mM HEPES, pH 7.4, 5 mM MgCl2, and 0.2% BSA) for 3 hours at room temperature containing 10 pM ^125I-hCGRP (GE Healthcare) and antagonist. The assay was terminated by filtration through 96-well GFB glass fiber filter plates (PerkinElmer) that had been blocked with 0.05% polyethyleneimine. The filters were washed 3 times with ice-cold assay buffer (10 mM HEPES, pH 7.4 and 5 mM MgCl2). Scintillation fluid was added and the plates were counted on a Topcount (Packard). Non-specific binding was determined and the data analysis was carried out with the apparent dissociation constant (Ki) determined by using a non-linear least squares fitting the bound CPM data to the equation below: […]
For orientation: Ki means the equilibrium dissociation constant of an inhibitor or competing ligand from its target. Regarding `CC(C)(C)C(=O)N(CCCc1ccc2c(c1)CC1(C2)C(=O)Nc2ncccc21)Cc1ccccc1` (centres unmarked) [Example 2, N-benzyl-2,2-dimethyl-N-[3-(2′-oxo-1,1′,2′,3-tetrahydrospiro[indene-2,3′-pyrrolo[2,3-b]pyridin]-5-yl)propyl]propanamide], the Ki turned out to be 45 nM.

With `CC(C)(C)C(=O)N(CC#Cc1ccc2c(c1)CC1(C2)C(=O)Nc2ncccc21)Cc1ccccc1` (centres unmarked) [Example 1, N-Benzyl-2,2-dimethyl-N-[3-(2′-oxo-1,1′,2′,3-tetrahydrospiro[indene-2,3′-pyrrolo[2,3-b]pyridin]-5-yl)prop-2-yn-1-yl]propanamide], the Ki was found to be 20 nM. Same read-out and setting: the figure for `CC(C)(CF)C(=O)N(C/C=C/c1cnc2c(c1)C[C@@]1(C2)C(=O)Nc2ncccc21)[C@@H]1CCc2ccccc21` [Example 3, N-[(1R)-2,3-dihydro-1H-inden-1-yl]-3-fluoro-2,2-dimethyl-N-{(2E)-3-[(6S)-2′-oxo-1′,2′,5,7-tetrahydrospiro[cyclopenta[b]pyridine-6,3′-pyrrolo[2,3-b]pyridin]-3-yl]prop-2-en-1-yl}propanamide] is 0.06 nM.

Staying with this assay, now noted: read-out: Ki.
Regarding `C[C@H](c1cc(F)cc(F)c1)N(C/C=C/c1cnc2c(c1)C[C@@]1(C2)C(=O)Nc2ncccc21)C(=O)C(C)(C)CCl` [Example 6], the Ki turned out to be 0.065 nM.

Consider `C[C@H](c1cc(F)cc(F)c1)N(C/C=C/c1ccc2c(c1)C[C@@]1(C2)C(=O)NC(=O)N1C)C(=O)C(C)(C)C` [Example 8], for which the inhibition constant (Ki) came to 0.43 nM. The same measure, in the same setting: for `C[C@H](c1cc(F)cc(F)c1)N(C/C=C/c1cnc2c(c1)C[C@@]1(C2)C(=O)Nc2ncccc21)C(=O)C1(C(F)(F)F)CC1` [Example 11] the value was 0.05 nM; for `C[C@H](c1cc(F)cc(F)c1)N(C/C=C/c1cnc2c(c1)C[C@@]1(C2)C(=O)Nc2ncccc21)C(=O)C(C)(C)CF` [Example 7], 0.041 nM. On the same count and under the same terms, for `Cc1ccc([C@@H](C)N(C/C=C/c2cnc3c(c2)C[C@@]2(C3)C(=O)Nc3ncccc32)C(=O)C(C)(C)C)cc1F` [Example 13] the value was 0.13 nM.
